From PMC10112521, “High-throughput AR dimerization assay identifies androgen disrupting chemicals and metabolites” (Frontiers in Toxicology, 2023)
Where two headings read alike, the source gives them in different places.

How the values were obtained:
AR = system: AR; set-up: method as in Kleinstreuer et al., 2017; details: 2017, cited from earlier work; for Antagonist reference: AR antagonist reference class ref Kleinstreuer et al.; for Agonist reference: AR agonist reference class ref Kleinstreuer et al.
AR2 cells (HepG2-AR2) [1] = experiment: Alamar Blue (resazurin) post hoc cell viability / cytotoxicity assay in AR2 cells; details: spid Viability, sheet antagonist_fits; for hill_tp (Hill model top): 0 where win_model is Constant
Method: (§1) For antagonist mode and cytotoxicity data, well-level normalized response (resp) was calculated as: resp=100 * RLU−bval/pval−bval where pval is the median RLU value of the MEC positive control wells (minimum four wells).

[2] = system: human AR (LBD and AF2 domains) and the RID of human SRC2; set-up: method as in U.S. EPA, 2002b; details: activity call, antagonist mode, 2 h; invitroDBv3.4 ref U.S. EPA, 2002b; cited from earlier work
[3] = system: full-length human AR and the receptor interacting domain (RID) of SRC1; set-up: method as in U.S. EPA, 2002b; details: activity call, single protocol detects agonists and antagonists, invitroDBv3.4 ref U.S. EPA, 2002b, cited from earlier work
human AR [4] = target: T1, human AR (Homo sapiens, UniProt P10275); experiment: cell-based; set-up: species or system AR2 cells (HepG2-AR2); NanoLuc complementation AR homodimerization, antagonist mode, loss of agonist-induced luminescence, AC50 by Hill fit; details: hill_ga, antagonist mode, 10 nM agonist stimulus, 18 h, no CYP expressed
T1 sequence (P10275 1-920) 1: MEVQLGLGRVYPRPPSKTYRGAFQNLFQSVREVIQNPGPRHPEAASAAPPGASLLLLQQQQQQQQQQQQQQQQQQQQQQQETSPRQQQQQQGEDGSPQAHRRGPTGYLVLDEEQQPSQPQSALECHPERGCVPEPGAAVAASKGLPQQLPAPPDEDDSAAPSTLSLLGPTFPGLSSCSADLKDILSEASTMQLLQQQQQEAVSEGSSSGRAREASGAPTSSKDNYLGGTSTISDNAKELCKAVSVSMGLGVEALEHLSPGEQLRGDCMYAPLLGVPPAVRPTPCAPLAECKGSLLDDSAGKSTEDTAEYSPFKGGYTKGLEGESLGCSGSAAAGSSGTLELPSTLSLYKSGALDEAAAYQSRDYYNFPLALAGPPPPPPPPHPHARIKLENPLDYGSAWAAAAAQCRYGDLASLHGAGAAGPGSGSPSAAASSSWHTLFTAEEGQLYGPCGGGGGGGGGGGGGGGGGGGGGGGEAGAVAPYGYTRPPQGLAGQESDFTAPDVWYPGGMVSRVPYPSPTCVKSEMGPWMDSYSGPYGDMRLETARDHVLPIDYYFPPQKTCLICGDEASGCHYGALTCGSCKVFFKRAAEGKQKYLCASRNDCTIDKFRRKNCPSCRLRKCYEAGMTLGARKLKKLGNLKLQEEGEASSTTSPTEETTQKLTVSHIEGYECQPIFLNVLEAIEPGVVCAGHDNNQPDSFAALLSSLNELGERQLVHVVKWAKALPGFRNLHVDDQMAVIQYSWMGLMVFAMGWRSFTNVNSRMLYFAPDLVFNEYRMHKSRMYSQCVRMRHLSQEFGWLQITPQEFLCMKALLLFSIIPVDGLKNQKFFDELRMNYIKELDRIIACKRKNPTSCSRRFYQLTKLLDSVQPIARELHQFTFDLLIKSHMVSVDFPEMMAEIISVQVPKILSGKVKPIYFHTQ
T1 sequence (P10275 1-920) 2: T1 sequence (P10275 1-920) 1

human AR [5] = target: T1, human AR; experiment: AR2 assay, antagonist mode: disruption of R1881 (10 nM)-induced AR homodimerization in HepG2-AR2 cells; assay type: cell-based; details: for AR2 antagonist: activity call, antagonist mode, 18 h; for hill_gw (Hill model slope): 0 where win_model is Constant
human AR [6] = target: T1, human AR; experiment: AR2 assay, agonist mode: ligand-dependent AR homodimerization (NanoBiT luciferase complementation) in stable HepG2-AR2 cells; assay type: cell-based; details: for hill_tp / max_med / win_model: sheet agonist_fits; for hill_tp: Hill model top (efficacy), 0 given where win_model is Constant; for max_med: maximum median response; for win_model: winning concentration-response model (Constant, Hill, Gain-Loss); for AR2 agonist: activity call, agonist mode, 18 h;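 as to hill tp: Log2 fold change of luminescence over DMSO vehicle wells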;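 as to max med: Log2 fold change of luminescence over DMSO vehicle wells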
AR2 cells (HepG2-AR2) [7] = system: AR2 cells (HepG2-AR2)
Method: as §1

[8] = system: human AR (LBD and AF2 domains) and the RID of human SRC2; set-up: method as in U.S. EPA, 2002b; details: activity call, agonist mode, 2 h; invitroDBv3.4 ref U.S. EPA, 2002b; cited from earlier work
[9] = spid AR_antagonist, sheet antagonist_fits
[10] = spid AR_antagonist, sheet antagonist_fits, Hill fit parameter

Row | Structure (SMILES) | Antagonist reference (AR) | Antagonist reference (AR; Supplementary Table S1) | max_med (maximum median response) (AR2 cells (HepG2-AR2) [1]) | hill_tp (Hill model top) (AR2 cells (HepG2-AR2) [1]) | UPitt antagonist [2] | OT 8 hr [3] | OT 16 hr [3] | AC50 (human AR [4]; spid=Bgal) | AC50 (human AR [4]; spid=No_RNA) | hill_tp (Hill model top) (human AR [5]) | max_med (maximum median response) (human AR [5]) | AR2 antagonist (human AR [5]) | win_model (winning concentration-response model) (human AR [5]; [9]) | hill_gw (Hill model slope) (human AR [5]; [9]) | hill_tp (human AR [6]) | max_med (human AR [6]) | win_model (human AR [6]) | hill_ga (Hill model log AC50) (AR2 cells (HepG2-AR2) [7]) | UPitt agonist [8] | Agonist reference (AR) | further results
1 | CC#C[C@]1(O)CC[C@H]2[C@@H]3CCC4=CC(=O)CCC4=C3[C@@H](c3ccc(N(C)C)cc3)C[C@@]21C [Mifepristone] | Strong | Strong | 9.555 | 0 | 1 | 1 | 1 | – | – | – | – | – | – | – | – | – | – | – | – | – | –
2 | CC(O)(CS(=O)(=O)c1ccc(F)cc1)C(=O)Nc1ccc(C#N)c(C(F)(F)F)c1 (stereo not shown) [Bicalutamide] | Strong | Strong | 19.8696 | 21.5759 | 1 | 1 | 1 | – | – | – | – | – | – | – | – | – | – | – | – | – | hill_tp (Hill model top) (AR2 cells (HepG2-AR2) [1]; listed as BICAL): 57.2356; max_med (maximum median response) (AR2 cells (HepG2-AR2) [1]; listed as BICAL): 25.4903
3 | CCCC1COC(Cn2cncn2)(c2ccc(Cl)cc2Cl)O1 (stereo not shown) [Propiconazole] | Weak | Weak | 5.206 | 0 | 1 | 1 | 1 | 33.8 µM | 32.2 µM | 116.132 | 96.3637 | 1 | Hill | 1.532 | 0 | 0.05395 | Constant | – | – | – | –
4 | C[C@H]1CCCC(=O)CCC/C=C/c2cc(O)cc(O)c2C(=O)O1 [Zearalenone] | Weak | Weak | 41.4682 | – | 1 | 0 | 0 | 9.73 µM | 7.46 µM | – | – | 1 | – | – | 0 | 0.2969 | Constant | – | – | – | hill_tp (Hill model top of curve) (AR2 cells (HepG2-AR2) [1]; Hill fit parameter): 49.8014; max_med (maximum median response) (human AR [5]; [9]): 103.904; win_model (winning curve-fit model) (human AR [5]; spid AR_antagonist, sheet antagonist_fits, Constant = no concentration response): Hill; hill_gw (Hill model slope/Hill coefficient) (human AR [5]; [10]): 2.042; hill_tp (Hill model top of curve) (human AR [5]; [10]): 105.112
5 | CC1(C)C(C=C(Cl)Cl)C1C(=O)OCc1cccc(Oc2ccccc2)c1 (stereo not shown) [Permethrin] | – | – | 5.481 | 0 | – | 0 | 0 | 27.5 µM | 47.3 µM | 63.3496 | 53.132 | – | Hill | 1.786 | 0 | 0.006626 | Constant | 0 | 0 | Inactive | AR2 agonist (human AR [6]): 0
6 | CCCCNC(=O)n1c(NC(=O)OC)nc2ccccc21 [Benomyl] | – | – | 28.9418 | 26.9649 | – | 0 | 1 | – | – | 30.7847 | 31.5571 | – | Hill | 3.063 | 0 | 0.04446 | Constant | 0.6267 | 0 | Inactive | AR2 agonist (human AR [6]): 0
